Source: patent US20250250227A1, “AMINO LIPID COMPOUND, PREPARATION METHOD THEREFOR, COMPOSITION THEREOF AND USE THEREOF” (SHENZHEN SHENXIN BIOTECHNOLOGY CO., LTD., priority 2022, published 2025)

How the values were obtained:
[1] = Preparation and characterisation of mRNA-encapsulating lipid nanoparticle (encapsulation efficiency, particle size); type: physicochemical; settings: LNP encapsulating Fluc mRNA; Lipid:DSPC:CHO-HP:M-DMG-2000 48:10:40.5:1.5
Method: A specified amount of Fluc mRNA stock solution, 0.2 M sodium acetate buffer, and DEPC water were added to a container, and mixed well to obtain a water phase;
The amino lipid compound of the present disclosure, a helper lipid, a structural lipid, and a PEG-lipid were separately dissolved in absolute ethanol to prepare respective solutions at concentrations of 20 mg/mL, 10 mg/mL, 20 mg/mL, and 25 mg/mL, respectively. The above four solutions were pipetted at a molar ratio of Lipid:DSPC:CHO—HP:M-DMG-2000 of 48:10:40.5:1.5, and mixed well to prepare an alcohol phase. • (2) Encapsulation: The water phase and the alcohol phase were injected into a microfluidic chip at a flow rate of water phase: alcohol phase=12 mL/min: 4 mL/min by using a microfluidic preparation instrument (MPE-L2), and encapsulation was carried out at a flow rate of water phase: alcohol phase=9 mL/min: 3 mL/min to obtain mRNA-encapsulating lipid nanoparticle (mRNA-LNP). • (3) Dialysis: The product of step (2) was loaded in a dialysis bag and placed in a Tris Buffer-8% sucrose solution for replacement to remove ingredients such as residual ethanol, unassembled lipids. Dialysis was conducted for 2 h with magnetic stirring at room temperature and under protection from light (dialysate was replaced every 1 hour). • (4) The product of step (3) was sterilized by passing through a […] microporous membrane, and then packaged.
Lipid nanoparticle formulations encapsulating Fluc mRNA were prepared, with a concentration of Fluc mRNA of 0.2 g/L, a mass ratio of Fluc mRNA to Lipid of 1:10, a particle size of 80-130 nm, and a encapsulation efficiency of 85% or higher.
The encapsulation efficiency of the lipid nanoparticle encapsulating luciferase mRNA (Fluc mRNA) with a representative amino lipid compound and the fluorescence expression intensity induced by the same are shown in Table 4, with the amino lipid compound 118 as a control. […]

Female BALB/c mice = experiment: Performance evaluation of in vivo delivery of Fluc mRNA lipid nanoparticle (IVIS, body and organs); settings: Fluc mRNA LNP; for Liver (fluorescence expression intensity) / Spleen (fluorescence expression intensity): 75 μL IV; for Liver (fluorescence expression intensity) / Spleen (fluorescence expression intensity) / Total flux (fluorescence expression intensity) / (Spleen/Total Flux) * 100%: 6 hours after injection; for Liver (fluorescence expression intensity) / Spleen (fluorescence expression intensity) / Total flux (fluorescence expression intensity): IVIS; for Total flux (fluorescence expression intensity): 75 μL tail vein injection (IV); for (Spleen/Total Flux) * 100% / Multiple of spleen delivery/total delivery to amino lipid compound 118: IV; for Multiple of spleen delivery/total delivery to amino lipid compound 118: relative to amino lipid compound 118
Method: Animal preparation: Female BALB/c mice of 6-8 weeks old were selected and raised in an SPF grade breeding room. Animal testing was conducted in strict accordance with the guidelines of national health institutions and animal ethics requirements.
In vivo Delivery: prior to injection of the test LNP formulations, the LNP formulations were gently and repeatedly inverted to thoroughly mix the formulation samples. A corresponding amount of the formulation samples were aspirated with a 1 ml insulin syringe, and the LNP formulations were injected by tail vein injection (IV), with 3 mice in duplicate per formulation. Each mouse was injected with 75 μL of the luciferase mRNA (Fluc mRNA)-encapsulating lipid nanoparticle formulation prepared in Experimental Example 1.
6 hours after injection of LNP formulations, mice were injected with 200 μL D-Luciferin luciferase developing substrate (Catalog No. 122799; Manufacturer: Perkin Elmer). After the substrate was injected, the mice were anesthetized with isoflurane inhalation, and the injection time of luciferase developing substrate was recorded.
The encapsulation efficiency of the lipid nanoparticle encapsulating luciferase mRNA (Fluc mRNA) with a representative amino lipid compound and the fluorescence expression intensity induced by the same are shown in Table 4, with the amino lipid compound 118 as a control.
The multiple of spleen delivery/total delivery of fluorescence expression intensity induced by lipid nanoparticle encapsulating luciferase mRNA (Fluc mRNA) with a representative amino lipid compound to amino lipid compound 118 is shown in Table 5.

| SMILES | Encapsulation efficiency [1] [%] | Liver (fluorescence expression intensity) (Female BALB/c mice) | Spleen (fluorescence expression intensity) (Female BALB/c mice) | Total flux (fluorescence expression intensity) (Female BALB/c mice) | (Spleen/Total Flux) * 100% (Female BALB/c mice) [%] | Multiple of spleen delivery/total delivery to amino lipid compound 118 (Female BALB/c mice) |
| --- | --- | --- | --- | --- | --- | --- |
| CCCCCCC(CCCCCC)OC(=O)CCCCCCCCC(CCCCCCCCC(=O)OC(CCCCCC)CCCCCC)OC(=O)N(CCCC(=O)OC(C)CCC)CCCN(C)C (stereo not drawn) [Compound 309] | 91.62 | 4.90E+07 | 3.44E+06 | 3.69E+08 | 0.93 | 2.74 |
| CCCCCCC(CCCCCC)OC(=O)CCCCCCCCC(CCCCCCCCC(=O)OC(CCCCCC)CCCCCC)OC(=O)N(CCCN(C)C)CCC(=O)OC(C)C [Compound 316] | 90.67 | 1.26E+08 | 2.03E+07 | 8.16E+08 | 2.49 | 7.32 |
| CCCCCCC(CCCCCC)OC(=O)CCCCCCCCC(CCCCCCCCC(=O)OC(CCCCCC)CCCCCC)OC(=O)N(CCCN(C)C)CCC(=O)OC(C)CCCC (stereo not drawn) [Compound 320] | 92.13 | 1.13E+08 | 4.97E+06 | 7.04E+08 | 0.71 | 2.08 |
| CCCCCCC(CCCCCC)OC(=O)CCCCCCCCC(CCCCCCCCC(=O)OC(CCCCCC)CCCCCC)OC(=O)N(CCCN(C)C)CCC(=O)OC(CC)CCC (stereo not drawn) [Compound 321] | 93.85 | 1.27E+08 | 1.47E+07 | 7.21E+08 | 2.04 | 6.00 |
| CCCCCCC(CCCCCC)OC(=O)CCCCCCCCC(CCCCCCCCC(=O)OC(CCCCCC)CCCCCC)OC(=O)N(CCCN(C)C)CCC(=O)OC(C)CCCCC (stereo not drawn) [Compound 322] | 90.32 | 9.73E+07 | 6.56E+06 | 7.90E+08 | 0.83 | 2.44 |
| CCCCCCC(C)OC(=O)CN(CCCN(C)C)C(=O)OC(CCCCCCCCC(=O)OC(CCCCCC)CCCCCC)CCCCCCCCC(=O)OC(CCCCCC)CCCCCC (stereo not drawn) [Compound 337] | 92.38 | 6.49E+07 | 3.30E+06 | 3.58E+08 | 0.92 | 2.71 |
| CCCCCCC(CCCCCC)OC(=O)CCCCCCCCC(CCCCCCCCC(=O)OC(CCCCCC)CCCCCC)OC(=O)N(CCCN(C)C)CC(=O)OC(CC)CCCCC (stereo not drawn) [Compound 338] | 91.13 | 1.07E+08 | 3.20E+06 | 6.32E+08 | 0.51 | 1.49 |
| CCCCCCC(CCCCCC)OC(=O)CCCCCCCCC(CCCCCCCCC(=O)OC(CCCCCC)CCCCCC)OC(=O)N(CCCCCC(=O)OCC)CCCN1CCCC1 [Compound 365] | 92.45 | 9.03E+07 | 4.45E+06 | 6.73E+08 | 0.66 | 1.94 |
| CCCCCCC(CCCCCC)OC(=O)CCCCCCCCC(CCCCCCCCC(=O)OC(CCCCCC)CCCCCC)OC(=O)N(CCCCCC(=O)OCC)CCCCN1CCCC1 [Compound 366] | 93.63 | 8.92E+07 | 4.11E+06 | 5.82E+08 | 0.71 | 2.08 |
| CCCCCCC(CCCCCC)OC(=O)CCCCCCCCC(CCCCCCCCC(=O)OC(CCCCCC)CCCCCC)OC(=O)N(CCCN1CCCC1)CC(=O)OCC [Compound 367] | 91.21 | 1.06E+07 | 4.33E+05 | 9.45E+07 | 0.46 | 1.35 |
| CCCCCCC(CCCCCC)OC(=O)CCCCCCCCC(CCCCCCCCC(=O)OC(CCCCCC)CCCCCC)OC(=O)N(CCCCN1CCCC1)CC(=O)OCC [Compound 368] | 87.51 | 6.14E+07 | 1.25E+07 | 3.97E+08 | 3.15 | 9.26 |
| CCCCCCC(CCCC)COC(=O)CCCCCCCCC(CCCCCCCCC(=O)OCC(CCCC)CCCCCC)OC(=O)N(CCCC(=O)OCCCCC)CCCN(C)C (stereo not drawn) [Compound 371] | 93.17 | 2.92E+08 | 2.36E+07 | 1.12E+09 | 2.11 | 6.20 |
| CCCCCCOC(=O)CCN(CCCN(C)C)C(=O)OC(CCCCCCCCC(=O)OCC(CCCC)CCCCCC)CCCCCCCCC(=O)OCC(CCCC)CCCCCC (stereo not drawn) [Compound 372] | 92.17 | 1.67E+08 | 8.59E+06 | 5.43E+08 | 1.58 | 4.65 |
| CCCCCCCOC(=O)CCN(CCCN(C)C)C(=O)OC(CCCCCCCCC(=O)OCC(CCCC)CCCCCC)CCCCCCCCC(=O)OCC(CCCC)CCCCCC (stereo not drawn) [Compound 373] | 92.01 | 9.15E+07 | 6.93E+06 | 4.77E+08 | 1.45 | 4.27 |
| CCCCCCCOC(=O)CN(CCCN(C)C)C(=O)OC(CCCCCCCCC(=O)OCC(CCCC)CCCCCC)CCCCCCCCC(=O)OCC(CCCC)CCCCCC (stereo not drawn) [Compound 375] | 94.18 | 1.55E+08 | 7.63E+06 | 4.06E+08 | 1.88 | 5.53 |
